The experiment concerns the target T1, AHR (Homo sapiens, UniProt P35869).
T1 construct: A human liver cancer cell line HepG2 endogenously expressing an AHR protein; host or cells: HepG2 stably transfected with a CYP1A1-promoter firefly luciferase reporter
T1 sequence (P35869 11-848): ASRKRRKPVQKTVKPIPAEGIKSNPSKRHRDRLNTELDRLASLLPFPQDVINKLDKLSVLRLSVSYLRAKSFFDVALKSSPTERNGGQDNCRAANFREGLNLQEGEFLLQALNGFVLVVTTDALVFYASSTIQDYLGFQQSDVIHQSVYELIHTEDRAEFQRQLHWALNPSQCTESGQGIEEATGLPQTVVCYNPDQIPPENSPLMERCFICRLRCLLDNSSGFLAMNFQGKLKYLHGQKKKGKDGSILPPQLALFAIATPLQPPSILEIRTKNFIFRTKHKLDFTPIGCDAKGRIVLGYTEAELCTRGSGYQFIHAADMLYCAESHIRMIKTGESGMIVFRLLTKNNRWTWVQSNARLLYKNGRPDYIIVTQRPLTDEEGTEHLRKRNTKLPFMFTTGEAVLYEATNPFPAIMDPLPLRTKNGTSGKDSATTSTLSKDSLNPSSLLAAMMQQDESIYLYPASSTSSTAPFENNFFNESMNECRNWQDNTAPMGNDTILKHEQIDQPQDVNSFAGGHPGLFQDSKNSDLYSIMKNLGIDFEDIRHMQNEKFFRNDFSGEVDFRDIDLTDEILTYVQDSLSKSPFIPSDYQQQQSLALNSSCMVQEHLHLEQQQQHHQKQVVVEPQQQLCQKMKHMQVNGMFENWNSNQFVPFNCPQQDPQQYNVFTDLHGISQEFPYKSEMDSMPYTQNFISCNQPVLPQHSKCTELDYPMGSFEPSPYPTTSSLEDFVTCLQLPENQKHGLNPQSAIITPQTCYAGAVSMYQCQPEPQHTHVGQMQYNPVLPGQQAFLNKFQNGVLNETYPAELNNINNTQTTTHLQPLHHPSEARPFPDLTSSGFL
Description: Antagonistic effect for AHR in HepG2 cells stably transfected with CYP1A1-promoter firefly luciferase reporter. Format: cell-based. To be noted: AHR agonist-stimulated, 24 h compound treatment, average of two replicates. The source says: A human liver cancer cell line HepG2 endogenously expressing an AHR protein (provided by the Stem Cell Bank of the Chinese Academy of Sciences) was adopted for testing. The expression of a CYP1A1 gene is regulated by an activity of AHR. After being activated, AHR can bind to a sequence called XRE on a CYP1A1 enhancer and initiate the expression of the CYP1A1 gene. To quantitatively determine an impact of a compound on the activity of AHR, a 1,200 bp (−1,143 to +57) regulatory sequence upstream of a promoter of the CYP1A1 gene was synthesized through gene synthesis and then inserted into a plasmid vector carrying firefly luciferase. The plasmid was then linearized through single enzyme cleavage and then transfected into HepG2 cells through lipofectin transfection (Lipofectamine 3000), and transfected HepG2 cells were screened by puromycin to obtain a stably-expressed cell line. When an antagonistic effect of a compound for AHR was tested, the expression of firefly luciferase was initiated by an AHR agonist (such as L-kynurenine, kynurenic acid, indirubin, TCDD, and 2-(1H-indol-3-ylcarbonyl)-4-thiazolecarboxylic acid methyl ester (ITE)), and cells were treated with the compound at different concentrations. Then, the inhibition on the expression of luciferase by the compound was measured.
Stably-transfected HepG2 cells were sub-cultivated in Minimum Eagle's medium (MEM) at 37° C. and 5% carbon dioxide. In the MEM, 1 mM sodium pyruvate, 2 mM GlutaMax, 1×non- essential amino acids, 10% Australian fetal bovine serum, 100 U/mL penicillin-streptomycin, and 5 μg/mL puromycin were supplemented. Before testing, HepG2 cells were inoculated into a 96-well plate at a density of 5-8×10^4 cells/well and cultivated for 24 h to 48 h to allow a cell confluency of about 90% before a drug treatment (puromycin was not added in a medium). Before the drug treatment, AHR agonist-containing 2×compound solutions at different concentrations were prepared with a same medium, and then a half of a cell culture medium in the 96-well plate was replaced with a 2×compound solution. An AHR agonist solution including only DMSO at a corresponding concentration was set as a negative control group, and CH223191 at a corresponding concentration (commercially available) was set as a positive control group. 2 separate replicate tests were set for each compound (including a positive control and a negative control). 24 h after the compound treatment, HepG2 cells were lysed by a Steady-Glo luciferase detection system of Promega, and a luciferase signal was measured by an InfiniteM1000 Pro microplate reader of Tecan.
In terms of data processing, for each replicate test of each compound, inhibition percentages of a compound at different concentrations on an activity of AHR were calculated sequentially with a signal of a well at a compound concentration of 0 as 100% and a cell signal of an untreated agonist as 0. Corresponding IC50 of a compound was calculated with an average value of data of two replicates according to the formula
tirougn non-nnear ning, where y represents an inhibition percentage and x represents a concentration of a corresponding compound.
IC50 for each compound was shown in Table 2, where A indicates IC50≤500 nM, B indicates 500 nM<IC50≤1.0 μM, C indicates 1 μM<IC50≤5.0 μM, and D indicates IC50>5.0 μM.
(In a reporter assay the amount or activity of a reporter protein is the signal.)

As for `Cn1cc(-c2nc(C(=O)NN3CCOC[C@H]3CO)cc(-c3ccc(Cl)cc3)n2)cn1` [Compound 36], the half-maximal inhibitory concentration (IC50) (commonly the concentration needed to halve the response being measured) is at most 500 nM.

The compound `CC(C)N(CCO)NC(=O)c1cc(-c2ccc(Cl)cc2)nc(-c2cccnc2)n1` [Compound 19] had an IC50 of at most 500 nM. The compound `O=C(NN1C(=O)COCC1CO)c1cc(-c2ccc(Cl)cc2)nc(-c2cccnc2)n1` (stereo not drawn) [Compound 29] had an IC50 of at most 500 nM. The figure for `CC(=O)N(NC(=O)c1cc(-c2ccc(C(F)(F)F)cc2)nc(-c2cccnc2)n1)c1cnccn1` [Compound 33] is at most 500 nM; for `C[C@@H]1COCCN1NC(=O)c1cc(-c2ccc(OC(F)(F)F)cc2)nc(-c2cnn(C)c2)n1` [Compound 16] it is at most 500 nM; for `C[C@@H]1COCCN1NC(=O)c1cc(-c2ccc(OC(F)(F)F)cc2)nc(-c2cccnc2)n1` [Compound 7] it is at most 500 nM. The figure for `CC1(C)COCCN1NC(=O)c1cc(-c2ccc(Cl)cc2)nc(-c2cccnc2)n1` [Compound 26] is at most 500 nM.

`CC(C)N(NC(=O)c1cc(-c2ccc(Cl)cc2)nc(-c2cccnc2)n1)C(C)CO` (stereo not drawn) [Compound 2] showed a half-maximal inhibitory concentration (IC50) of at most 500 nM. As for `C[C@@H]1COCCN1NC(=O)c1cc(-c2ccc(Cl)cc2)nc(-c2cccnc2)n1` [Compound 9], the IC50 is at most 500 nM.

On to `CC1COCC(C)N1NC(=O)c1cc(-c2ccc(OC(F)(F)F)cc2)nc(-c2cccnc2)n1` (stereo not drawn) [Compound 3], for which the IC50 is at most 500 nM. `CC(C)N(NC(=O)c1cc(-c2cccc(F)c2)nc(-c2cccnc2)n1)C(C)CO` (stereo not drawn) [Compound 58] displayed a 50% inhibitory concentration (IC50) of 500 to 1000 nM. The compound `CCN(NC(=O)c1cc(-c2ccc(C(F)(F)F)cc2)nc(-c2cccc(C)c2)n1)C(C)CO` (stereo not drawn) [Compound 53] had a concentration for half-maximal inhibition (IC50) of 500 to 1000 nM. The figure for `C[C@H]1COCCN1NC(=O)c1cc(-c2ccc(Cl)cc2)nc(-c2cnn(C)c2)n1` [Compound 41] is at most 500 nM; for `CC1(C)CN(NC(=O)c2cc(-c3ccc(C(F)(F)F)cc3)nc(-c3cccnc3)n2)CCO1` [Compound 31] it is 500 to 1000 nM; for `CC(C)N(NC(=O)c1cc(-c2ccc(O)cc2)nc(-c2cccnc2)n1)C(C)CO` (stereo not drawn) [Compound 51] it is 500 to 1000 nM. Consider `CC(C)N(CCO)NC(=O)c1cc(-c2ccc(C(F)(F)F)cc2)nc(-c2cnn(C)c2)n1` [Compound 20], for which the IC50 was at most 500 nM.

The compound `O=C(NN1CCOCC1)c1cc(-c2ccc(C(F)(F)F)cc2)nc(-c2cccnc2)n1` [Compound 24] came in with an IC50 of 500 to 1000 nM. Take `CC1COCC(=O)N1NC(=O)c1cc(-c2ccc(OC(F)(F)F)cc2)nc(-c2cccnc2)n1` (stereo not drawn) [Compound 11]: the IC50 is at most 500 nM. `CC1(C)COCC(=O)N1NC(=O)c1cc(-c2ccc(C(F)(F)F)cc2)nc(-c2cccnc2)n1` [Compound 30] came in with an IC50 of at most 500 nM. In the case of `Cc1ccc(-c2cc(C(=O)NN(C(C)C)C(C)CO)nc(-c3cccnc3)n2)s1` (stereo not drawn) [Compound 62] it was 500 to 1000 nM; in that of `CC(=O)N(NC(=O)c1cc(-c2ccc(C(F)(F)F)cc2)nc(-c2cnn(C)c2)n1)c1cnccn1` [Compound 34], at most 500 nM. As for `CC(C)N(NC(=O)c1cc(-c2ccc(F)cc2)nc(-c2cccnc2)n1)C(C)CO` (stereo not drawn) [Compound 59], the half-maximal inhibitory concentration (IC50) is 500 to 1000 nM. `C[C@@H]1COCCN1NC(=O)c1cc(-c2ccc(C(F)(F)F)cc2)nc(-c2cnn(C)c2)n1` [Compound 38]: the half-maximal inhibitory concentration (IC50) was 500 to 1000 nM. In turn, `CC1COCC(CO)N1NC(=O)c1cc(-c2ccc(C(F)(F)F)cc2)nc(-c2cccnc2)n1` (stereo not drawn) [Compound 12] had a half-maximal inhibitory concentration (IC50) of at most 500 nM.

On to `CCN(CCO)NC(=O)c1cc(-c2ccc(Cl)cc2)nc(-c2cccnc2)n1` [Compound 21], for which the 50% inhibitory concentration (IC50) is at most 500 nM. As for `Cc1ccc(-c2cc(C(=O)NN(C(C)C)C(C)CO)nc(-c3cccnc3)n2)cc1` (stereo not drawn) [Compound 49], the IC50 is at most 500 nM. As to `C[C@H]1COCCN1NC(=O)c1cc(-c2ccc(OC(F)(F)F)cc2)nc(-c2cccnc2)n1` [Compound 6], the half-inhibitory concentration (IC50) is at most 500 nM. In the case of `C[C@H]1COCCN1NC(=O)c1cc(-c2ccc(C(F)(F)F)cc2)nc(-c2cccnc2)n1` [Compound 4] it was at most 500 nM; in that of `O=C(NN1CCOC[C@H]1CO)c1cc(-c2ccc(C(F)(F)F)cc2)nc(-c2cccnc2)n1` [Compound 42], at most 500 nM; in that of `CC1(C)COCCN1NC(=O)c1cc(-c2ccc(C(F)(F)F)cc2)nc(-c2cccnc2)n1` [Compound 27], at most 500 nM.

In the case of `C[C@H]1COCCN1NC(=O)c1cc(-c2ccc(Cl)cc2)nc(-c2cccnc2)n1` [Compound 8], the IC50 is at most 500 nM. The compound `CC1COCC(=O)N1NC(=O)c1cc(-c2ccc(Cl)cc2)nc(-c2cccnc2)n1` (stereo not drawn) [Compound 28] gave a half-inhibitory concentration (IC50) of 500 to 1000 nM. `CC(C)N(NC(=O)c1cc(-c2ccc(OC(F)(F)F)cc2)nc(-c2cccnc2)n1)C(C)CO` (stereo not drawn) [Compound 14] registered an IC50 of at most 500 nM. The figure for `CC(C)N(NC(=O)c1cc(-c2ccc(C(F)(F)F)cc2)nc(-c2cccc(F)c2)n1)C(C)CO` (stereo not drawn) [Compound 61] is at most 500 nM; for `CC(C)N(NC(=O)c1cc(-c2ccc(C(F)(F)F)cc2)nc(-c2cccnc2)n1)C(C)CO` (stereo not drawn) [Compound 1, 6-(4-trifluoromethylenyl)-N-(1-hydroxypropyy1-2-yl)-N-isopropyl-2-(pyridin-3-yl)pyrimidin-4-hydrazide] it is at most 500 nM; for `O=C(NN1CCOCC1CO)c1cc(-c2ccc(C(F)(F)F)cc2)nc(-c2cccnc2)n1` (stereo not drawn) [Compound 23] it is at most 500 nM. With `O=C(NN1CCOC[C@@H]1CO)c1cc(-c2ccc(Cl)cc2)nc(-c2cccnc2)n1` [Compound 47], the IC50 was at most 500 nM. In the case of `CC(C)N(NC(=O)c1cc(-c2ccc(C(F)(F)F)nc2)nc(-c2cccc(F)c2)n1)C(C)CO` (stereo not drawn) [Compound 37] it was at most 500 nM. `Cn1cc(-c2nc(C(=O)NN3CCOC[C@@H]3CO)cc(-c3ccc(Cl)cc3)n2)cn1` [Compound 35]: the IC50 was at most 500 nM. In the case of `CC(C)N(NC(=O)c1cc(-c2ccc(C(F)(F)F)cc2)nc(-c2cccnc2)n1)S(C)(=O)=O` [Compound 67] it was at most 500 nM; in that of `O=C(NN1CCC[C@H]1CO)c1cc(-c2ccc(Cl)cc2)nc(-c2cccnc2)n1` [Compound 22], 500 to 1000 nM. In the case of `O=C(NN1CCOC[C@@H]1CO)c1cc(-c2ccc(C(F)(F)F)cc2)nc(-c2cccnc2)n1` [Compound 43] it was at most 500 nM; in that of `CC(O)CN(NC(=O)c1cc(-c2ccc(Cl)cc2)nc(-c2cccnc2)n1)C(C)C` (stereo not drawn) [Compound 32], at most 500 nM. In the case of `O=C(NN1CCOC[C@H]1CO)c1cc(-c2ccc(Cl)cc2)nc(-c2cccnc2)n1` (stereo in doubt) [Compound 46] it was at most 500 nM. Regarding `CCN(NC(=O)c1cc(-c2ccc(Cl)cc2)nc(-c2cccc(F)c2)n1)C(C)CO` (stereo not drawn) [Compound 54], the half-inhibitory concentration (IC50) is at most 500 nM.

Values taken from patent publication US20250270201A1, “SUBSTITUTED PYRIMIDINYL HYDRAZIDE COMPOUND AND PREPARATION METHOD AND USE THEREOF” (ARIGENX THERAPEUTICS CO., LTD., priority 2022, published 2025).
